Experimental data published in patent publication US20240391923A1, “METHIONINE ADENOSYLTRANSFERASE 2A INHIBITOR FOR TREATING MTAP DELETION-TYPE CANCER” (SUZHOU GENHOUSE BIO CO., LTD., priority 2022, published 2024).
Where two headings read alike, the source gives them in different places.

Experiments:
[1] = tested on: SDMA in human colon cancer cell line HCT116; test: Cell symmetric dimethylarginine (SDMA) test, In-cell Western, HCT116 (MTAP wild-type); format: cell-based; details: Homo sapiens, HCT-116, 96 h
Excerpt: MAT2A catalyzes the reaction of L-methionine and ATP to generate SAM, inorganic phosphonic acid, and inorganic diphosphonic acid. SAM is an important methyl donor, and is a substrate of arginine methyltransferase 5 (PRMT5). PRMT5 catalyzes SDMA modification of multiple proteins within a cell. The intracellular SDMA modification level was detected by ICW (In-cell Western), and the inhibition of the test compound on the enzymatic activity of intracellular MAT2A was indirectly reflected.
In the present application, the human colon cancer cell line HCT116 and the corresponding HCT116-MTAP-knockout cell line were seeded into a 96-well cell culture plate at an appropriate cell density. After 24 h, the cells were treated using the test compounds diluted 1:4 fold at the highest concentration of 6 μM for 6 gradients, and a DMSO treatment group was set up separately. The cells were cultured in a 37° C./5% CO2 incubator for 4 days. To test the inhibitory activity of the test compounds against tumor cell SDMA, the medium was discarded, and the plate was washed 3 times with PBST. 4% paraformaldehyde was then used at room temperature for fixation for 20 min. The fixation solution was discarded, the plate was washed 3 times with PBST, and a special blocking solution was added to each well for blocking at room temperature for 2 h. The blocking solution was discarded. After the plate was washed 3 times with PBST, the plate was incubated with SDMA antibody at 4° C. overnight. The next day, the plate was washed 3 times with PBST. The secondary antibody and DRAQ5 were diluted to an appropriate concentration with the blocking solution, and incubated at room temperature for 2 h; the plate was washed 3 times with PBST, and the fluorescence signals at 700 nm and 800 nm were detected using a Li—COR Odyssey two-color near-infrared laser imager.
The data was then processed. After the corresponding background value was subtracted from each well, statistical analysis was performed on the 800 nm/700 nm ratio for each well, a sigmoidal dose-inhibition curve was plotted using a non-linear regression model, and IC50 values were fitted and calculated. Inhibition Rate (%)=(1−SDMA dose/SDMA DMSO control)*100. SDMA dose is the value of the drug treatment group, and SDMA DMSO control is the value of the DMSO control group.

[2] = target: MAT2A recombinant protein (Homo sapiens, UniProt P31153); test: MAT2A inhibitory activity (malachite green colorimetric enzyme assay); format: biochemical
Excerpt: MAT2A catalyzes the reaction of L-methionine and ATP to generate S-adenosylmethionine (SAM), inorganic phosphonic acid, and inorganic diphosphonic acid. Malachite green reacts with inorganic phosphonic acid to generate a green product, and the enzyme activity of MAT2A can be indirectly reflected by detecting the content of the inorganic phosphonic acid in a sample.
The test compounds were formulated using DMSO and diluted 1:3 diluted through 10 concentration points to give a final starting concentration in the reaction system of 1000 nM. The test compounds at different concentrations described above were transferred to a 384-well plate. Experimental buffer (50 mM HEPES pH 7.5, 50 mM KCl, 10 mM MgCl2, 10 mM DTT) was prepared. 2×MAT2A recombinant protein was prepared using the buffer and added to a 384-well plate. A mixed solution of 2×L-methionine and ATP was prepared using the buffer, and added to a 384-well plate. The enzymatic reaction was started, and the reaction was carried out at room temperature for 60 min. 20 μL of a colorimetric detection reagent was added to the above system, and incubated at room temperature for 15 min. The absorbance at 630 nm was measured. The inhibition rate of the compound on the enzyme activity was calculated, and the inhibition rate value and the logarithm value of the compound concentration were fitted using non-linear regression (dose response-variable slope) to give the IC50 value of the test compound.

[3] = tested on: SDMA in HCT116-MTAP-knockout cell line; test: Cell symmetric dimethylarginine (SDMA) test, In-cell Western, HCT116-MTAP-knockout; format: cell-based; details: Homo sapiens, 96 h
[4] = IC50 score class, read-out: Cell 96 h SDMA Inhibition (HCT116-MTAP+/+) (score)
[5] = read-out: Cell 96 h SDMA inhibition (HCT116-MTAP+/+)
[6] = IC50 score class, read-out: MAT2A Inhibition (score)
[7] = IC50 score class, read-out: Cell 96 h SDMA Inhibition (HCT116-MTAP−/−) (score)
[8] = read-out: Cell 96 h SDMA Inhibition (HCT116-MTAP−/−)

MAT2A recombinant protein, sequence (P31153 whole entry): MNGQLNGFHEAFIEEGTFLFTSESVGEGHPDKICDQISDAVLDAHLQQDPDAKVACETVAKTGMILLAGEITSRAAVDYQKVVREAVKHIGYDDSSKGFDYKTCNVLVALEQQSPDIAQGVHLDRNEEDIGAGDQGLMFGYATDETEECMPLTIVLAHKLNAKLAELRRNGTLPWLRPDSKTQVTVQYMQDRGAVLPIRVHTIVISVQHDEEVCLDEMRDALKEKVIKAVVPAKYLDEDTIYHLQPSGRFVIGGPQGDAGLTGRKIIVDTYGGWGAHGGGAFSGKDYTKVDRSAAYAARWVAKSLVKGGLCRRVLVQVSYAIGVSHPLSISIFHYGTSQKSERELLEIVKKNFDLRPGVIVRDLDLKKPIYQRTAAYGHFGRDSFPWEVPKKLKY

SMILES | IC50 [1, 4] [nM] | IC50 [1, 5] [nM] | IC50 [2, 6] [nM] | IC50 ([2]; read-out: MAT2A Inhibition) [nM] | IC50 [3, 7] [nM] | IC50 [3, 8] [nM]
O=c1c2nn(C(F)F)cc2c2cc(F)c(Cl)cc2n1-c1cccnc1C1CC1 (single isomer, unassigned) [Compound B399] | > 3000 | > 10000 | – | – | – | –
CCn1cc2c(n1)c(=O)n(-c1ccc(OC)cc1)c1cc(Cl)ccc21 [Compound B11] | – | – | > 1000 | > 1000 | – | –
Cc1ncccc1-n1c(=O)c2nn(C)cc2c2ccc(C3CC3)nc21 [Compound B75] | 200 to 1000 | 298 | < 100 | 43.9 | < 200 | 14.6
Cn1cc2c(n1)c(=O)n([C@H]1CC[C@H](O)CC1)c1cc(Cl)ccc21 [Compound B109] | – | – | 100 to 1000 | 483 | – | –
Cn1cc2c(n1)c(=O)n(Cc1ccn[nH]1)c1cc(Cl)ccc21 [Compound B117] | – | – | < 100 | 41.9 | – | –
Cn1cc2c(n1)c(=O)n(-c1cccnc1)c1cc(Cl)cc(F)c21 [Compound B172] | 1000 to 3000 | 2210 | < 100 | 68.1 | 200 to 1000 | 771
COc1ccc(-n2c(=O)c3nn(C)cc3c3ccc(Cl)cc32)cc1 [Compound B185] | – | – | 100 to 1000 | 379 | – | –
COc1ccc(-n2c(=O)c3nn(C)cc3c3ccc(C(F)(F)F)nc32)cc1 [Compound B187] | – | – | 100 to 1000 | 284 | – | –
Cn1cc2c(n1)c(=O)n(-c1cccc(OC(F)F)c1)c1nc(C(F)(F)F)ccc21 [Compound B190] | – | – | 100 to 1000 | 133 | – | –
Cn1cc2c(n1)c(=O)n(-c1cccc(C(F)F)c1)c1nc(C(F)(F)F)ccc21 [Compound B194] | – | – | < 100 | 43.7 | – | –
Cn1cc2c(n1)c(=O)n(-c1c(F)cccc1F)c1nc(C(F)(F)F)ccc21 [Compound B195] | – | – | < 100 | 20 | – | –
Cn1cc2c(n1)c(=O)n(Cc1cn[nH]c1)c1nc(C(F)(F)F)ccc21 [Compound B197] | – | – | < 100 | 90.4 | – | –
Cn1cc2c(n1)c(=O)n(-c1cncc(F)c1)c1nc(C(F)(F)F)ccc21 [Compound B202] | > 3000 | 15300 | < 100 | 49.9 | 1000 to 3000 | 1440
Cn1cc2c(n1)c(=O)n(-c1ccc3ncoc3c1)c1cc(Cl)ccc21 [Compound B208] | – | – | 100 to 1000 | 178 | – | –
Cn1cc2c(n1)c(=O)n(-c1ccc3ncoc3c1)c1nc(C(F)(F)F)ccc21 [Compound B209] | – | – | 100 to 1000 | 122 | – | –
Cn1cc2c(n1)c(=O)n(-c1cccc(NS(C)(=O)=O)c1)c1nc(C(F)(F)F)ccc21 [Compound B214] | – | – | < 100 | 14.9 | – | –
Cn1cc2c(n1)c(=O)n([C@@H]1CCCOC1)c1cc(Cl)ccc21 [Compound B230] | – | – | 100 to 1000 | 237 | – | –
COc1ccc(-n2cc3c(n2)c(=O)n(-c2ccccc2)c2nc(C(F)(F)F)ccc32)cn1 [Compound B231] | – | – | < 100 | 39.9 | – | –
Cn1cc2c(n1)c(=O)n(-c1cccc(C(N)=O)c1)c1nc(C(F)(F)F)ccc21 [Compound B234] | > 3000 | > 3000 | < 100 | 25.5 | 1000 to 3000 | 1370
N#Cc1cc2c3cn(C(F)F)nc3c(=O)n(-c3cccc4[nH]ncc34)c2cc1Cl [Compound B283] | – | – | < 100 | 88 | – | –
COc1ccc(Cn2cc3c(n2)c(=O)n(-c2cccc4[nH]ncc24)c2cc(Cl)c(C#N)cc32)cc1 [Compound B286] | – | – | 100 to 1000 | 188 | – | –
O=c1c2nn(C(F)F)cc2c2cc(F)c(Cl)cc2n1-c1cccnc1C(F)(F)F [Compound B339] | > 3000 | > 10000 | – | – | 200 to 1000 | 203
Cn1cnc2c(=O)n(-c3cccc4ccccc34)c3cc(Cl)c(C#N)cc3c21 [Compound B378] | – | – | > 1000 | > 1000 | – | –
Cn1cnc2c(=O)n(-c3cccc4cccnc34)c3cc(Cl)c(C#N)cc3c21 [Compound B379] | – | – | > 1000 | > 1000 | – | –

More lines, now with the values ahead:

IC50 [1, 4] [nM] | IC50 [1, 5] [nM] | IC50 [2, 6] [nM] | IC50 ([2]; read-out: MAT2A Inhibition) [nM] | IC50 [3, 7] [nM] | IC50 [3, 8] [nM] | SMILES
– | – | > 1000 | > 1000 | – | – | CCn1cc2c(n1)c(=O)n(-c1ccncc1)c1cc(Cl)ccc21 [Compound B10]
– | – | > 1000 | > 1000 | – | – | CCn1cc2c(n1)c(=O)n(-c1cccc(C(F)(F)F)c1)c1cc(Cl)ccc21 [Compound B15]
– | – | 100 to 1000 | 125 | – | – | CCn1cc2c(n1)c(=O)n(-c1cccnc1)c1cc(OC(F)(F)F)ccc21 [Compound B19]
– | – | 100 to 1000 | 908 | – | – | Cc1nnc2c(=O)n(-c3cccnc3)c3cc(Cl)ccc3n12 [Compound B23]
– | – | 100 to 1000 | 115 | – | – | CCn1nc2c(=O)n(-c3cccnc3)c3cc(Cl)ccc3c2c1C(F)(F)F [Compound B24]
– | – | < 100 | 92.8 | – | – | CCn1nc2c(=O)n(-c3cccnc3)c3cc(Cl)ccc3c2c1C(F)F [Compound B25]
– | – | 100 to 1000 | 349 | – | – | Cn1nc2c(=O)n(-c3cccnc3)c3cc(Cl)ccc3c2c1C(F)(F)F [Compound B26]
– | – | 100 to 1000 | 488 | – | – | O=c1c2nccnc2c2ccc(Cl)cc2n1-c1cccnc1 [Compound B50]
1000 to 3000 | 2030 | – | – | 200 to 1000 | 813 | Cn1cc2c(n1)c(=O)n(-c1cccnc1)c1cc(OC(F)(F)F)ccc21 [Compound B78]
> 3000 | 6800 | < 100 | 37.4 | 200 to 1000 | 775 | Cn1cc2c(n1)c(=O)n(-c1cccnc1)c1cc(Cl)c(F)cc21 [Compound B139]
> 3000 | 17400 | < 100 | 71.8 | 200 to 1000 | 228 | Cn1cc2c(n1)c(=O)n(-c1cccc(O)c1)c1cc(Cl)ccc21 [Compound B152]
– | – | < 100 | 99.2 | – | – | Cn1ccc(Cn2ncc3c4ccc(Cl)cc4n(-c4cccnc4)c(=O)c32)n1 [Compound B168]
– | – | < 100 | 97.4 | – | – | Cn1cc2c(n1)c(=O)n(-c1cccc(O)c1)c1cc(OC(F)(F)F)ccc21 [Compound B169]
– | – | 100 to 1000 | 220 | – | – | O=c1c2c(cnn2CC(F)F)c2ccc(Cl)cc2n1-c1cccnc1 [Compound B170]
> 3000 | > 3000 | < 100 | 61.8 | 200 to 1000 | 818 | COc1cc2c3cn(C)nc3c(=O)n(-c3cccnc3)c2cc1Cl [Compound B171]
– | – | 100 to 1000 | 174 | – | – | COc1cccc(-n2c(=O)c3nn(C)cc3c3ccc(C(F)(F)F)nc32)c1 [Compound B184]
– | – | 100 to 1000 | 191 | – | – | Cn1cc2c(n1)c(=O)n(-c1ccc(OC(F)F)cc1)c1cc(Cl)ccc21 [Compound B186]
– | – | < 100 | 71.1 | – | – | Cn1cc2c(n1)c(=O)n(-c1ccn3ccnc3c1)c1cc(Cl)ccc21 [Compound B205]
– | – | 100 to 1000 | 603 | – | – | O=c1c2nn(C3CCOCC3)cc2c2ccc(C(F)(F)F)nc2n1-c1cccnc1 [Compound B210]
– | – | < 100 | 102 | – | – | Cn1cc2c(n1)c(=O)n(-c1cccnc1)c1nc(Cl)ccc21 [Compound B244]
